Data from PubChem BioAssay (NCI).
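Protocol summary: plate cells (96-well), add compound at 5 concentrations, incubate 48 h, interpolate endpoints linearly. Abbreviation: GI50, concentration required for 50% inhibition of growth. TGI denotes the concentration required for complete inhibition of growth.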

Assays:
Assay in all cases: NCI-60 cell line screen, 48 h
[1] = test system: UACC-62 melanoma
[2] = test system: LOX IMVI melanoma
[3] = test system: CAKI-1 renal
[4] = test system: SK-MEL-28 melanoma
[5] = test system: SNB-75 CNS
[6] = test system: SF-268 CNS
[7] = test system: HT29 colon
[8] = test system: MDA-MB-231 breast
[9] = test system: U251 CNS
[10] = test system: OVCAR-8 ovarian
[11] = test system: SW-620 colon
[12] = test system: COLO 205 colon
[13] = test system: UO-31 renal
[14] = test system: K-562 leukemia
[15] = test system: HL-60(TB) leukemia
[16] = test system: RPMI-8226 leukemia
[17] = test system: NCI-H522 lung
[18] = test system: HOP-92 NSCLC
[19] = test system: DU-145 prostate
[20] = test system: ACHN renal
[21] = test system: SK-OV-3 ovarian
[22] = test system: 786-0 renal
[23] = test system: MALME-3M melanoma
[24] = test system: SR leukemia
[25] = test system: KM12 colon
[26] = test system: HCC-2998 colon
[27] = test system: SNB-19 CNS
[28] = test system: T-47D breast
[29] = test system: SK-MEL-2 melanoma
[30] = test system: IGROV1 ovarian
[31] = test system: MOLT-4 leukemia
[32] = test system: PC-3 prostate
[33] = test system: M14 melanoma
[34] = test system: HS 578T breast
[35] = test system: NCI-H460 lung
[36] = test system: OVCAR-5 ovarian
[37] = test system: NCI-H23 lung
[38] = test system: OVCAR-3 ovarian
[39] = test system: HCT-116 colon
[40] = test system: SF-295 CNS
[41] = test system: NCI-H226 lung
[42] = test system: SK-MEL-5 melanoma
[43] = test system: CCRF-CEM leukemia
[44] = test system: EKVX NSCLC
[45] = test system: HOP-62 NSCLC
[46] = test system: BT-549 breast
[47] = test system: TK-10 renal
[48] = test system: MDA-MB-435
[49] = test system: HCT-15 colon
[50] = test system: A498 renal
[51] = test system: SN12C renal
[52] = test system: A549 NSCLC
[53] = test system: NCI/ADR-RES ovarian
[54] = test system: MCF7 breast
[55] = test system: UACC-257 melanoma
[56] = test system: OVCAR-4 ovarian
[57] = test system: RXF 393 renal
[58] = test system: SF-539 CNS

For `CC(=O)Oc1ccccc1C(=O)Nc1cc(C(C)C)ccc1C`, the GI50 [1] was 2490 nM, the TGI [1] was 7.59 µM and the GI50 [2] was 3.94 µM. It also gave a TGI [2] of 15.2 µM, a GI50 [3] of 4.5 µM and a TGI [3] of 27.9 µM. The GI50 [4] was 3.93 µM, the TGI [4] was 20.6 µM and the GI50 [5] was 4.09 µM. It also gave a TGI [5] of 27.6 µM, a GI50 [6] of 7.14 µM and a TGI [6] greater than 100 µM. For the same compound, the GI50 [7] was 29.8 µM, the TGI [7] was greater than 100 µM and the GI50 [8] was 9.92 µM. It also gave a TGI [8] of 50.4 µM, a GI50 [9] of 4.07 µM and a TGI [9] of 28.5 µM. The GI50 [10] was 4.9 µM, the TGI [10] was greater than 100 µM and the GI50 [11] was 9.34 µM. For the same compound, the TGI [11] was 28.5 µM, the GI50 [12] was 18.3 µM and the TGI [12] was 36.2 µM. The GI50 [13] was 2930 nM, the TGI [13] was 11.7 µM and the GI50 [14] was 3.8 µM. It also gave a TGI [14] of 56.5 µM, a GI50 [15] of 4.66 µM and a TGI [15] of 38.3 µM. It also gave a GI50 [16] of 3.9 µM, a TGI [16] greater than 100 µM and a GI50 [17] of 2340 nM. The TGI [17] was 7.86 µM, the GI50 [18] was 2540 nM and the TGI [18] was 8.4 µM. For the same compound, the GI50 [19] was 8.38 µM, the TGI [19] was greater than 100 µM and the GI50 [20] was 4.43 µM. For the same compound, the TGI [20] was 51.1 µM, the GI50 [21] was 5.88 µM and the TGI [21] was 41.6 µM. The GI50 [22] was 5.92 µM, the TGI [22] was 26.6 µM and the GI50 [23] was 2970 nM. For the same compound, the TGI [23] was 15.1 µM, the GI50 [24] was 3.56 µM and the TGI [24] was 30.9 µM. It also gave a GI50 [25] of 4.61 µM, a TGI [25] of 32.3 µM and a GI50 [26] of 4.62 µM. For the same compound, the TGI [26] was 20 µM, the GI50 [27] was 3.52 µM and the TGI [27] was 23.1 µM. It also gave a GI50 [28] of 2620 nM, a TGI [28] greater than 100 µM and a GI50 [29] of 3.1 µM. For the same compound, the TGI [29] was 12.2 µM, the GI50 [30] was 4.44 µM and the TGI [30] was 45.7 µM. The GI50 [31] was 4.2 µM, the TGI [31] was 29.7 µM and the GI50 [32] was 4.31 µM. It also gave a TGI [32] of 56.8 µM, a GI50 [33] of 5.31 µM and a TGI [33] of 22.4 µM. The GI50 [34] was 4.67 µM, the TGI [34] was 34.7 µM and the GI50 [35] was 3.99 µM. It also gave a TGI [35] greater than 100 µM, a GI50 [36] of 20.4 µM and a TGI [36] greater than 100 µM. It also gave a GI50 [37] of 2710 nM, a TGI [37] of 9.84 µM and a GI50 [38] of 4.38 µM. For the same compound, the TGI [38] was greater than 100 µM, the GI50 [39] was 4.49 µM and the TGI [39] was 16.7 µM. The GI50 [40] was 4.46 µM, the TGI [40] was 18.8 µM and the GI50 [41] was 2550 nM. The TGI [41] was 10.4 µM, the GI50 [42] was 2270 nM and the TGI [42] was 5.74 µM. It also gave a GI50 [43] of 6.19 µM, a TGI [43] greater than 100 µM and a GI50 [44] of 3.94 µM. The TGI [44] was 30 µM, the GI50 [45] was 11.2 µM and the TGI [45] was 44.9 µM. For the same compound, the GI50 [46] was 2630 nM, the TGI [46] was 8.34 µM and the GI50 [47] was 2960 nM. The TGI [47] was 12.8 µM, the GI50 [48] was 4.08 µM and the TGI [48] was 23.4 µM. The GI50 [49] was 4.13 µM, the TGI [49] was 16.3 µM and the GI50 [50] was 5.22 µM. It also gave a TGI [50] of 33.8 µM, a GI50 [51] of 3.73 µM and a TGI [51] of 20.7 µM. For the same compound, the GI50 [52] was 5.01 µM, the TGI [52] was greater than 100 µM and the GI50 [53] was 3.74 µM. For the same compound, the TGI [53] was 24.8 µM, the GI50 [54] was 3.83 µM and the TGI [54] was 42.2 µM. For the same compound, the GI50 [55] was 4.33 µM, the TGI [55] was 33 µM and the GI50 [56] was 3.44 µM. It also gave a TGI [56] greater than 100 µM, a GI50 [57] of 2550 nM and a TGI [57] of 9.78 µM. The GI50 [58] was 4.61 µM and the TGI [58] was 19 µM.
